Results reported in PubChem BioAssay (NCI).
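1) Cells in 96-well plates. 2) Compound, 48 h, 5 concentrations. 3) Linear interpolation between surrounding doses. 4) Unreached endpoint = highest concentration. GI50: concentration for 50% inhibition of growth. TGI denotes the concentration required for complete inhibition of growth.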

Columns and labels:
Test in all cases: growth of human tumour cells (NCI), 48 h
SK-OV-3 ovarian = system: SK-OV-3 ovarian
HL-60(TB) leukemia = system: HL-60(TB) leukemia
NCI-H522 lung = system: NCI-H522 lung
OVCAR-5 ovarian = system: OVCAR-5 ovarian
CAKI-1 renal = system: CAKI-1 renal
UO-31 renal = system: UO-31 renal
EKVX NSCLC = system: EKVX NSCLC
SF-295 CNS = system: SF-295 CNS
M14 melanoma = system: M14 melanoma
MCF7 breast = system: MCF7 breast

Row | Compound | TGI (SK-OV-3 ovarian) | TGI (HL-60(TB) leukemia) | TGI (NCI-H522 lung) | TGI (OVCAR-5 ovarian) | TGI (CAKI-1 renal) | TGI (UO-31 renal) | TGI (EKVX NSCLC) | TGI (SF-295 CNS) | TGI (M14 melanoma) | TGI (MCF7 breast) | GI50 (SK-OV-3 ovarian) | GI50 (HL-60(TB) leukemia) | GI50 (NCI-H522 lung) | GI50 (OVCAR-5 ovarian) | GI50 (UO-31 renal) | GI50 (M14 melanoma) | GI50 (EKVX NSCLC) | GI50 (SF-295 CNS) | GI50 (CAKI-1 renal) | GI50 (MCF7 breast)
1 | COc1ccc(C2[C@@H](Cl)C(=O)N2c2ccc(OC)cc2)cc1 (some centres not stated) | 53 µM | > 100 µM | > 100 µM | > 100 µM | > 100 µM | > 100 µM | > 100 µM | > 100 µM |  |  |  |  |  |  |  |  |  |  |  | 
2 | O=c1[nH]c(C2CCCCC2)nc2ccc(Cl)cc12 | > 100 µM |  |  | > 100 µM |  | > 100 µM | > 100 µM | > 100 µM |  |  |  |  |  |  |  |  |  |  |  | 
3 | OCC1OC(NO)C(O)C(O)C1O (configuration not stated) |  | > 100 µM | > 100 µM | > 100 µM | > 100 µM |  |  | > 100 µM | > 100 µM |  |  |  |  |  |  |  |  |  |  | 
4 | O=S(=O)(O)c1ccc([Se][Se]c2ccc(S(=O)(=O)O)cc2)cc1 | > 100 µM | > 100 µM | > 100 µM | > 100 µM | > 100 µM | > 100 µM | > 100 µM | > 100 µM | > 100 µM |  |  |  |  |  |  |  |  |  |  | 
5 | COc1ccc(NC(=O)CC2SC(=Nc3ccc(Cl)cc3C)NC2=O)c([N+](=O)[O-])c1 (configuration not stated) |  | > 100 µM | > 100 µM | > 100 µM | > 100 µM | > 100 µM | > 100 µM | > 100 µM | > 100 µM |  |  |  |  |  |  |  |  |  |  | 
6 | COc1cc(OC)c(OC)cc1/C=C/c1ccc2ccccc2n1 | > 10 µM | > 10 µM | > 10 µM | > 10 µM | > 10 µM |  |  | > 10 µM | > 10 µM | > 10 µM |  |  |  |  |  |  |  |  |  | 
7 | CCn1c(C)nc([N+](=O)[O-])c1Sc1ncc[nH]1 | > 100 µM |  | 38.1 µM | > 100 µM | > 100 µM | > 100 µM | > 100 µM | > 100 µM | > 100 µM |  |  |  |  |  |  |  |  |  |  | 
8 | CCCCCCCC(=O)[O-].N.N.N.N.N.[Co+3].[O-][Cl+3]([O-])([O-])[O-] | > 100 µM | > 100 µM | > 100 µM | > 100 µM |  | > 100 µM | > 100 µM | > 100 µM | > 100 µM |  | > 100 µM | > 100 µM | > 100000 nM | > 100 µM | 90.6 µM | > 100000 nM | > 100000 nM | > 100000 nM |  | 
9 | O=S1c2ccccc2N=C(c2cccs2)CC1c1ccccc1O (configuration not stated) | > 100 µM | > 100 µM | > 100 µM | > 100 µM | > 100 µM | > 100 µM | > 100 µM | > 100 µM | > 100 µM |  |  |  |  |  |  |  |  |  |  | 
10 | CCN(Cc1c(F)cccc1C(F)(F)F)c1ccc(CO)c(Cl)c1 | 26.8 µM | 36.9 µM | 27 µM | 0.205 µM | 24.2 µM | 28.3 µM |  | 1.12 µM | 33.4 µM | 15.7 µM | 13.7 µM | 15.9 µM | 12600 nM | < 0.0249 µM | 14.6 µM | 17400 nM |  |  | 10.2 µM | 156 nM
11 | O=C(Nc1cccc(Cl)c1)Nc1cc(C(F)(F)F)ccc1Cl | 16.5 µM | 31.3 µM | 7.7 µM | 12.7 µM |  |  |  |  | 9.68 µM | 18.1 µM | 3.54 µM | 3.02 µM | 2140 nM | 3.17 µM |  | 2970 nM |  |  |  | 3130 nM
12 | Oc1ccccc1-c1cnnc(-c2ccccc2O)c1 | 72.8 µM | 44.1 µM | 41.3 µM | 61.8 µM | 65.2 µM | 44.3 µM | 92.9 µM |  | 43.3 µM |  |  |  |  |  |  |  |  |  |  | 
13 | COc1ccc(N2CCN(c3nc(-c4ccccn4)nc4sc5c(c34)CCCCCC5)CC2)cc1 | > 100 µM | 34 µM | > 100 µM | > 100 µM | > 100 µM | > 100 µM |  |  | > 100 µM | > 100 µM | > 100 µM | 4.05 µM | 18600 nM | 51.7 µM | 3.28 µM | 5400 nM |  |  | 5.4 µM | 3150 nM
14 | O=S1(=O)CC#CC[C@@H](CO)[C@@H](CO)CC#CC1 | > 100 µM | > 100 µM | 32.6 µM | > 100 µM |  | > 100 µM | > 100 µM | > 100 µM | > 100 µM |  |  |  |  |  |  |  |  |  |  | 
15 | CCCCCCCN(CCCCCCC)C(=N)c1ccc(OC)c2ccccc12 | 3.14 µM |  | 2.73 µM | 2.88 µM | 2.83 µM | 2.36 µM | 2.85 µM | 2.72 µM | 2.95 µM |  | 1.66 µM |  | 1250 nM | 1.29 µM | 0.971 µM | 1530 nM | 1370 nM | 1240 nM | 1.43 µM | 
16 | Fc1ccc(Nc2ccnc(N3CCN(c4ccnc5cc(Cl)ccc45)CC3)n2)cc1 | > 100 µM | 6.44 µM | 5.38 µM | > 100 µM | 5.3 µM | 4.54 µM |  | 3.2 µM | 4.25 µM | 8.26 µM | 5.02 µM | 2.59 µM | 2030 nM | 3.82 µM | 0.845 µM | 1890 nM |  | 1330 nM | 1.83 µM | 2360 nM
